Experimental data from the supplement of paper PMC10307832.

What was measured:
Test in all cases: relative viability (nuclei count vs DMSO), 5 days (fraction); higher = more cells survive
Metformin + Olaparib = compound: CN(C)C(=N)NC(=N)N [Metformin] + O=C(c1cc(Cc2n[nH]c(=O)c3ccccc23)ccc1F)N1CCN(C(=O)C2CC2)CC1 [Olaparib] (partner 8 µM)
In short: (§1)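 A single step with final 0.05% Triton X-100, 1% formaldehyde and 1 ug/ml Hoechst fixed the cells and stained nuclei 5 days after treatment. Lung cancer cell lines in 1536-well plates had been treated by pin tool the day after seeding with one drug alone or a fixed anchor-drug dose plus five library-drug doses (not always all listed) in √10 steps, and nuclei were counted on 4× images. Relative viability is the ratio of nuclei in treated wells to nuclei in vehicle wells, taken as the median of duplicate plates.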

Metformin + Pemetrexed = compound: CN(C)C(=N)NC(=N)N [Metformin] + Nc1nc2[nH]cc(CCc3ccc(C(=O)N[C@@H](CCC(=O)O)C(=O)O)cc3)c2c(=O)[nH]1 [Pemetrexed] (partner 0.2 µM)
In short: as §1

Apatinib + Vorinostat = compound: N#CC1(c2ccc(NC(=O)c3cccnc3NCc3ccncc3)cc2)CCCC1 [Apatinib] + O=C(CCCCCCC(=O)Nc1ccccc1)NO [Vorinostat] (partner 1 µM)
In short: as §1

Apatinib + Pictilisib = compound: N#CC1(c2ccc(NC(=O)c3cccnc3NCc3ccncc3)cc2)CCCC1 [Apatinib] + CS(=O)(=O)N1CCN(Cc2cc3nc(-c4cccc5[nH]ncc45)nc(N4CCOCC4)c3s2)CC1 [Pictilisib] (partner 1 µM)
In short: as §1

| Cell Line | relative viability (Metformin + Olaparib; first compound 10 µM) | relative viability (Metformin + Olaparib; first compound 31.62 µM) | relative viability (Metformin + Olaparib; first compound 100 µM) | relative viability (Metformin + Olaparib; first compound 316.23 µM) | relative viability (Metformin + Olaparib; first compound 1000 µM) | relative viability (Metformin + Pemetrexed; first compound 10 µM) | relative viability (Metformin + Pemetrexed; first compound 31.62 µM) | relative viability (Metformin + Pemetrexed; first compound 100 µM) | relative viability (Metformin + Pemetrexed; first compound 316.23 µM) | relative viability (Metformin + Pemetrexed; first compound 1000 µM) | relative viability (Apatinib + Vorinostat; first compound 0.08 µM) | relative viability (Apatinib + Vorinostat; first compound 0.253 µM) | relative viability (Apatinib + Vorinostat; first compound 0.8 µM) | relative viability (Apatinib + Vorinostat; first compound 2.53 µM) | relative viability (Apatinib + Vorinostat; first compound 8 µM) | relative viability (Apatinib + Pictilisib; first compound 0.08 µM) | relative viability (Apatinib + Pictilisib; first compound 0.253 µM) | relative viability (Apatinib + Pictilisib; first compound 0.8 µM) | relative viability (Apatinib + Pictilisib; first compound 2.53 µM) | relative viability (Apatinib + Pictilisib; first compound 8 µM) |
| --- | --- | --- | --- | --- | --- | --- | --- | --- | --- | --- | --- | --- | --- | --- | --- | --- | --- | --- | --- | --- |
| NCI-H1650 | 0.687 | 0.625 | 0.763 | 0.682 | 0.59 | 0.398 | 0.428 | 0.388 | 0.404 | 0.301 | 0.564 | 0.559 | 0.513 | 0.412 | 0.489 | 0.355 | 0.658 | 0.58 | 0.526 | 0.477 |
| SK-MES-1 | 0.305 | 0.352 | 0.406 | 0.381 | 0.363 | 0.532 | 0.721 | 0.805 | 0.662 | 0.708 | 1.18 | 1.14 | 1.04 | 0.961 | 0.928 | 0.421 | 0.3 | 0.326 | 0.37 | 0.32 |
| NCI-H2085 | 0.621 | 0.633 | 0.596 | 0.591 | 0.654 | 0.917 | 0.815 | 0.904 | 0.881 | 0.955 | 0.77 | 0.777 | 0.711 | 0.73 | 0.742 | 0.464 | 0.457 | 0.475 | 0.449 | 0.499 |
| NCI-H441 | – | 0.575 | 0.387 | 0.356 | 0.374 | – | 0.255 | 0.292 | 0.266 | 0.264 | 0.891 | 0.673 | 0.827 | 0.809 | 0.574 | 0.583 | 0.566 | 0.51 | 0.408 | 0.32 |
| PC-3 [JPC-3] | 0.95 | 0.932 | – | 0.741 | 0.69 | 1.12 | 1.08 | – | 0.897 | 0.705 | – | 0.756 | 0.733 | 0.533 | 0.799 | 0.781 | 0.741 | 0.594 | 0.605 | 0.683 |
| NCI-H1944 | 0.385 | 0.381 | 0.479 | 0.397 | 0.471 | 0.505 | 0.75 | 0.625 | 0.687 | 0.576 | 0.519 | 0.526 | 0.454 | 0.422 | 0.419 | 0.344 | 0.345 | 0.306 | 0.282 | 0.303 |
| CAL-12T | 0.612 | 0.661 | 0.61 | 0.611 | 0.744 | 1.05 | 1.04 | 1.26 | 1.13 | 0.97 | 0.941 | 1.02 | 0.741 | 0.794 | 0.765 | 0.304 | 0.352 | 0.393 | 0.484 | 0.353 |
